Laboratory results: the NIST ThermoML archive (doi:10.1016/j.jct.2012.05.003)
Numbers after ± are expanded uncertainties.

Test: molar heat capacity at saturation pressure
Conditions: Vacuum adiabatic calorimetry

O=C1c2ccccc2-c2ccccc21 [9(9H)-fluorenone]
molar heat capacity [J/K/mol]
Conditions	Crystal	Liquid
4.566 K	0.46 ± 0.017	–
5 K	0.6 ± 0.025	–
5.528 K	0.77 ± 0.025	–
6.434 K	1.22 ± 0.042	–
7.474 K	1.88 ± 0.058	–
8.581 K	2.71 ± 0.083	–
9.685 K	3.71 ± 0.12	–
10 K	4.02 ± 0.042	–
10.85 K	4.87 ± 0.05	–
12.11 K	6.26 ± 0.058	–
13.44 K	7.86 ± 0.067	–
14.97 K	9.678 ± 0.075	–
16.65 K	11.82 ± 0.091	–
18.49 K	14.15 ± 0.1	–
20 K	16.01 ± 0.11	–
20.45 K	16.55 ± 0.11	–
22.62 K	19.26 ± 0.12	–
25.08 K	22.19 ± 0.14	–
27.79 K	25.34 ± 0.15	–
30 K	27.82 ± 0.075	–
30.74 K	28.64 ± 0.075	–
33.98 K	32.05 ± 0.083	–
37.55 K	35.61 ± 0.091	–
40 K	37.94 ± 0.091	–
41.59 K	39.4 ± 0.091	–
46.13 K	43.45 ± 0.1	–
50 K	46.83 ± 0.11	–
51.2 K	47.85 ± 0.11	–
56.87 K	52.2 ± 0.12	–
56.9 K	52.18 ± 0.12	–
60 K	54.38 ± 0.12	–
62.55 K	56.09 ± 0.12	–
62.62 K	56.16 ± 0.12	–
68.7 K	60.3 ± 0.13	–
70 K	61.14 ± 0.13	–
72.85 K	62.96 ± 0.13	–
75.63 K	64.74 ± 0.13	–
80 K	67.46 ± 0.14	–
83.16 K	69.38 ± 0.14	–
84.2 K	70.02 ± 0.15	–
90 K	73.43 ± 0.22	–
91.53 K	74.32 ± 0.22	–
92.55 K	74.86 ± 0.22	–
100 K	79.14 ± 0.22	–
100.6 K	79.46 ± 0.22	–
101.73 K	80.16 ± 0.22	–
109.97 K	84.81 ± 0.22	–
119.46 K	90.1 ± 0.22	–
120 K	90.41 ± 0.22	–
129.35 K	95.77 ± 0.23	–
139.36 K	101.53 ± 0.23	–
140 K	101.91 ± 0.23	–
149.34 K	107.42 ± 0.24	–
159.36 K	113.33 ± 0.25	–
160 K	113.73 ± 0.25	–
169.39 K	119.4 ± 0.26	–
179.42 K	125.52 ± 0.27	–
180 K	125.91 ± 0.27	–
189.44 K	131.93 ± 0.27	–
199.45 K	138.28 ± 0.27	–
200 K	138.65 ± 0.27	–
209.47 K	144.93 ± 0.28	–
219.38 K	151.48 ± 0.29	–
220 K	151.91 ± 0.29	–
229.4 K	158.17 ± 0.3	–
239.49 K	164.92 ± 0.31	–
240 K	165.3 ± 0.31	–
249.56 K	172.03 ± 0.32	–
259.56 K	178.91 ± 0.32	–
260 K	179.23 ± 0.32	–
269.56 K	185.84 ± 0.33	–
279.57 K	192.92 ± 0.34	–
280 K	193.1 ± 0.34	–
289.32 K	199.64 ± 0.35	–
296.08 K	204.14 ± 0.35	–
298.15 K	205.82 ± 0.36	–
299.29 K	206.68 ± 0.36	–
300 K	207.11 ± 0.36	–
305.5 K	210.87 ± 0.36	–
308.47 K	212.74 ± 0.36	–
309.21 K	213.37 ± 0.37	–
315.7 K	218.21 ± 0.37	–
316.59 K	218.89 ± 0.37	–
320 K	221.01 ± 0.37	–
324.75 K	224.49 ± 0.37	–
325.3 K	224.82 ± 0.37	–
332.95 K	230.04 ± 0.38	–
335.34 K	231.75 ± 0.38	–
340 K	235.18 ± 0.39	282.8 ± 0.44
340.05 K	–	282.82 ± 0.44
341.17 K	235.83 ± 0.39	–
345.34 K	238.85 ± 0.39	–
349.26 K	–	287 ± 0.45
349.41 K	242.52 ± 0.4	–
356.52 K	247.86 ± 0.4	290.4 ± 0.45
359.51 K	–	291.82 ± 0.46
360 K	–	291.97 ± 0.46
363.97 K	–	293.73 ± 0.46
364.32 K	–	293.78 ± 0.46
367.03 K	–	295.01 ± 0.46
373.93 K	–	298.26 ± 0.47
380 K	–	301.01 ± 0.47
386.08 K	–	303.75 ± 0.47
398.35 K	–	309.31 ± 0.47
400 K	–	310.04 ± 0.47
410.74 K	–	314.78 ± 0.48
420 K	–	318.92 ± 0.48
423.26 K	–	320.37 ± 0.49
435.5 K	–	325.69 ± 0.49
440 K	–	327.65 ± 0.5
447.89 K	–	331.01 ± 0.5
460 K	–	336.07 ± 0.51
460.14 K	–	336.12 ± 0.51
472.54 K	–	341.25 ± 0.52
477.16 K	–	343.14 ± 0.52
480 K	–	344.22 ± 0.52
487.83 K	–	347.32 ± 0.52
490.73 K	–	348.64 ± 0.52
499.62 K	–	352.16 ± 0.52
500 K	–	352.28 ± 0.52
505.44 K	–	354.68 ± 0.53
509.99 K	–	356.21 ± 0.53
518.82 K	–	359.99 ± 0.53
519.26 K	–	360.18 ± 0.53
520 K	–	360.47 ± 0.53
